In ChEMBL document CHEMBL3580592, “Combretastatin A-4 inspired novel 2-aryl-3-arylamino-imidazo-pyridines/pyrazines as tubulin polymerization inhibitors, antimitotic and anticancer agents” (Medchemcomm, 2014):
The source made the active and inactive calls. The calls are words filed in the database; no cut-off is given here.

Key:
[1] = tested on: HEK-293T; experiment: Cytotoxicity against human HEK293T cells assessed as cell death by MTT assay; type: functional; conditions: read-out: LC50 (the source's name)
[2] = target: Tubulin; experiment: Inhibition of tubulin polymerization in HEK293T cell lysate after 15 mins by spectrophotometry; type: cell-free, Homo sapiens; conditions: hek-293t
[3] = Cytotoxicity against African green monkey Vero cells assessed as cell death by MTT assay; type: cell-based; conditions: chlorocebus sabaeus, read-out: LC50 (the source's name)
[4] = tested on: HEK-293T; experiment: Induction of apoptosis in HEK293T cells assessed as increase in p53 expression at LC50 after 24 hrs by Western blot analysis; type: functional, cell-based; conditions: Homo sapiens
[5] = tested on: HeLa; experiment: Cytotoxicity against human HeLa cells assessed as cell death after 48 hrs by MTT assay; type: functional; conditions: read-out: LC50 (the source's name)
[6] = tested on: MCF7; experiment: Cytotoxicity against human MCF7 cells assessed as cell death after 24 hrs by MTT assay; type: functional; conditions: MCF7, 24 h, read-out: LC50 (the source's name)
[7] = tested on: SiHa; experiment: Cytotoxicity against human SiHa cells assessed as cell death after 24 hrs by MTT assay; type: functional; conditions: read-out: LC50 (the source's name)
[8] = tested on: HEK-293T; experiment: Induction of chromosomal damage in HEK293T cells assessed as micronuclei formation at LC50 after 24 hrs by cytokinesis-block micronucleus assay relative to untreated control; type: functional, cell-based; conditions: Homo sapiens
[9] = tested on: HEK-293T; experiment: Induction of apoptosis in HEK293T cells assessed as chromatin condensation and nuclear fragmentation at LC50 after 24 hrs by DAPI staining-based fluorescent microscopy; type: functional, cell-based; conditions: Homo sapiens
[10] = tested on: HEK-293T; experiment: Cytotoxicity against human HEK293T cells assessed as cell death after 24 hrs by MTT assay; type: functional; conditions: read-out: LC50 (the source's name)
[11] = tested on: HEK-293T; experiment: Induction of apoptosis in HEK293T cells assessed as reduction in PARP level at LC50 after 24 hrs by Western blot analysis; type: functional, cell-based; conditions: Homo sapiens
[12] = tested on: HEK-293T; experiment: Induction of apoptosis in HEK293T cells assessed as apoptotic nuclei at LC50 after 24 hrs by DAPI staining-based fluorescent microscopy; type: functional, cell-based; conditions: Homo sapiens
[13] = tested on: MCF7; experiment: Cytotoxicity against human MCF7 cells assessed as cell death after 48 hrs by MTT assay; type: functional; conditions: MCF7, 48 h, read-out: LC50 (the source's name)
[14] = tested on: HEK-293T; experiment: Cytotoxicity against human HEK293T cells assessed as cell death after 48 hrs by MTT assay; type: functional; conditions: read-out: LC50 (the source's name)
[15] = tested on: HeLa; experiment: Cytotoxicity against human HeLa cells assessed as cell death after 24 hrs by MTT assay; type: functional; conditions: read-out: LC50 (the source's name)
[16] = tested on: SiHa; experiment: Cytotoxicity against human SiHa cells assessed as cell death after 48 hrs by MTT assay; type: functional; conditions: read-out: LC50 (the source's name)
[17] = tested on: HEK-293T; experiment: Induction of apoptosis in HEK293T cells assessed as activation of caspase 3 at LC50 after 24 hrs by immunocytochemical analysis; type: functional, cell-based; conditions: Homo sapiens
[18] = tested on: HEK-293T; experiment: Induction of DNA damage in HEK293T cells assessed as increase in comet length at LC50 after 24 hrs by Comet assay relative to untreated control; type: functional, cell-based; conditions: Homo sapiens
[19] = tested on: HEK-293T; experiment: Cytotoxicity against human HEK293T cells assessed as inhibition of colony formation at LC50 after 24 hrs by crystal violet staining based clonogenic cell survival assay; type: functional
[20] = target: Tubulin (Homo sapiens) (UniProt P68371+Q9H4B7+P0DPH7+P68366+Q13509+Q71U36+P04350+Q3ZCM7+P07437+P68363+Q9BQE3+Q6PEY2+Q13885+Q9BVA1+Q9BUF5); experiment: Inhibition of tubulin assembly in HEK293T cells assessed as formation of abnormal mitotic spindles at LC50 after 24 hrs by immunofluorescence based confocal microscopy; type: cell-based; conditions: HEK-293T
[21] = tested on: HEK-293T; experiment: Induction of cell cycle arrest in HEK293T cells assessed as cells accumulation at G2/M phase at LC50 after 24 hrs by PI staining-based FACS scan flow cytometry (reference value: 22.2 +/- 1.5%); type: functional, Homo sapiens
[22] = tested on: HEK293; experiment: Inhibition of anchorage-dependent HEK293T cell migration at LC50 after 6 to 24 hrs by wound healing assay; type: functional, cell-based; conditions: Homo sapiens

COc1ccc(Nc2c(-c3ccc(F)cc3)nc3cnccn23)cc1
CC50 [1]: 56 µM | IC50 [2]: 44 µM | CC50 [3]: 72 µM

COc1ccc(Nc2c(-c3cccc(O)c3)nc3ccccn23)cc1
CC50 [1]: 47 µM | IC50 [2]: 42 µM | CC50 [3]: 74 µM

COc1cc(-c2nc3cnccn3c2Nc2cc(OC)c(OC)c(OC)c2)cc(OC)c1O
CC50 [1]: 34 µM | IC50 [2]: 34 µM | CC50 [3]: 62 µM

COc1ccc(Nc2c(-c3ccc(OC)cc3)nc3ccccn23)cc1
CC50 [1]: 34 µM | IC50 [2]: 34 µM | CC50 [3]: 54 µM

COc1ccc(/C=C\c2cc(OC)c(OC)c(OC)c2)cc1O [COMBRETASTATIN A4]
Activity [4]: Active | CC50 [1]: 8 µM | CC50 [5]: 0.8 µM | CC50 [6]: 7 µM | CC50 [7]: 0.6 µM | Activity [8]: Active | Activity [9]: Active | CC50 [3]: 11 µM | CC50 [10]: 8 µM | Activity [11]: Active | Activity [12]: Active | CC50 [13]: 2 µM | CC50 [14]: 0.2 µM | CC50 [15]: 6 µM | CC50 [16]: 0.2 µM | Activity [17]: Active | Activity [18]: Active

COc1ccc(Nc2c(-c3ccc(OC)c(O)c3)nc3cnccn23)cc1
CC50 [1]: 38 µM | IC50 [2]: 38 µM | CC50 [3]: 62 µM

COc1ccc(-c2nc3sccn3c2Nc2cc(OC)c(OC)c(OC)c2)cc1O
CC50 [1]: 36 µM | IC50 [2]: 36 µM | CC50 [3]: 62 µM

COc1ccc(Nc2c(-c3cc(OC)c(OC)c(OC)c3)nc3ccccn23)cc1
Activity [4]: Active | CC50 [1]: 10 µM | inhibition [19]: Active | CC50 [5]: 5 µM | CC50 [6]: 8 µM | CC50 [7]: 5 µM | Activity [8]: Active | Activity [9]: Active | inhibition [20]: Active | IC50 [2]: 14 µM | Activity [21]: 40.7% | CC50 [3]: 65 µM | CC50 [10]: 10 µM | Activity [11]: Active | Activity [12]: Active | CC50 [13]: 5 µM | CC50 [14]: 5 µM | inhibition [22]: Active | CC50 [15]: 9 µM | CC50 [16]: 2 µM | Activity [17]: Active | Activity [18]: Active

COc1ccc(-c2nc3sc4ccccc4n3c2Nc2cc(OC)c(OC)c(OC)c2)cc1O
CC50 [1]: 22 µM | IC50 [2]: 20 µM | CC50 [3]: 26 µM

COc1ccc(-c2nc3cnccn3c2Nc2cc(OC)c(OC)c(OC)c2)cc1O
CC50 [1]: 38 µM | IC50 [2]: 38 µM | CC50 [3]: 50 µM

COc1ccc(-c2nc3cnccn3c2Nc2cc(OC)c(OC)c(OC)c2)cc1
CC50 [1]: 54 µM | IC50 [2]: 40 µM | CC50 [3]: 75 µM

COc1ccc(Nc2c(-c3cccc(B(O)O)c3)nc3ccccn23)cc1
CC50 [1]: 48 µM | IC50 [2]: 48 µM | CC50 [3]: 58 µM

COc1cc(Nc2c(C3C=Nc4ccccc43)nc3cnccn23)cc(OC)c1OC (stereo not drawn)
Activity [4]: Active | CC50 [1]: 12 µM | inhibition [19]: Active | CC50 [5]: 9 µM | CC50 [6]: 18 µM | CC50 [7]: 7 µM | Activity [8]: Active | Activity [9]: Active | inhibition [20]: Active | IC50 [2]: 11 µM | Activity [21]: 87.4% | CC50 [3]: 70 µM | CC50 [10]: 12 µM | Activity [11]: Active | Activity [12]: Active | CC50 [13]: 6 µM | CC50 [14]: 3 µM | inhibition [22]: Active | CC50 [15]: 17 µM | CC50 [16]: 3 µM | Activity [17]: Active | Activity [18]: Active

COc1ccc(-c2nc3cc(C)ccn3c2Nc2cc(OC)c(OC)c(OC)c2)cc1O
Activity [4]: Active | CC50 [1]: 8 µM | inhibition [19]: Active | CC50 [5]: 7 µM | CC50 [6]: 15 µM | CC50 [7]: 4 µM | Activity [8]: Active | Activity [9]: Active | inhibition [20]: Active | IC50 [2]: 10 µM | Activity [21]: 36.6% | CC50 [3]: 48 µM | CC50 [10]: 8 µM | Activity [11]: Active | Activity [12]: Active | CC50 [13]: 10 µM | CC50 [14]: 3 µM | inhibition [22]: Active | CC50 [15]: 15 µM | CC50 [16]: 1.5 µM | Activity [17]: Active | Activity [18]: Active

COc1cc(Nc2c(-c3cccc(O)c3)nc3cnccn23)cc(OC)c1OC
CC50 [1]: 42 µM | IC50 [2]: 39 µM | CC50 [3]: 63 µM

COc1ccc(Nc2c(-c3ccc(OC)c(O)c3)nc3ncccn23)cc1
CC50 [1]: 54 µM | IC50 [2]: 54 µM | CC50 [3]: 56 µM

COc1ccc(-c2nc3cccc(C)n3c2Nc2cc(OC)c(OC)c(OC)c2)cc1O
CC50 [1]: 63 µM | IC50 [2]: 38 µM | CC50 [3]: 74 µM

COc1cc(Nc2c(-c3ccc(Cl)cc3)nc3cnccn23)cc(OC)c1OC
CC50 [1]: 25 µM | IC50 [2]: 32 µM | CC50 [3]: 32 µM

COc1cc(Nc2c(-c3ccc(F)cc3)nc3cnccn23)cc(OC)c1OC
CC50 [1]: 36 µM | IC50 [2]: 36 µM | CC50 [3]: 48 µM

COc1ccc(-c2nc3ccccn3c2Nc2cc(OC)c(OC)c(OC)c2)cc1O
Activity [4]: Active | CC50 [1]: 10 µM | inhibition [19]: Active | CC50 [5]: 10 µM | CC50 [6]: 20 µM | CC50 [7]: 5 µM | Activity [8]: Active | Activity [9]: Active | inhibition [20]: Active | IC50 [2]: 12 µM | Activity [21]: 33.6% | CC50 [3]: 50 µM | CC50 [10]: 10 µM | Activity [11]: Active | Activity [12]: Active | CC50 [13]: 12 µM | CC50 [14]: 5 µM | inhibition [22]: Active | CC50 [15]: 15 µM | CC50 [16]: 2 µM | Activity [17]: Active | Activity [18]: Active

COc1ccc(Nc2c(-c3ccc(Cl)cc3)nc3cnccn23)cc1
CC50 [1]: 34 µM | IC50 [2]: 46 µM | CC50 [3]: 45 µM
